Tests used:
JNK = experiment: Western blot of phospho-JNK in left ventricular tissue after I/R; type: in vivo, rat; conditions: 5 mg/kg before reperfusion
TNF-α = experiment: Cardiac tissue TNF-α level by ELISA 24 h after I/R; type: in vivo, rat; conditions: 5 mg/kg
Experimental: (§1) An ischemia reperfusion injury was produced in rat heart based on Buerke's description with our modifications (Buerke et al., Proc Natl Acad Sci USA, 1995, 92:8031-8035). Sixty rats were randomly divided into six groups (n=10 per group): (I) Sham group (given saline vehicle without I/R); (II) I/R group with saline alone; (Ill) I/R group with 10 mg/kg of the caffeoylquinic acid-rich extract of example 1; (IV) I/R group with 20 mg/kg of the caffeoylquinic acid-rich extract of example 1; (V) I/R group with 40 mg/kg of the caffeoylquinic acid-rich extract of example 1; […] The vehicle or drugs were administered 1 min before reperfusion via single bolus tail vein injection. […] Using a PowerLab (ADInstruments Pty Ltd., Castle Hill, Australia), mean aortic pressure (MAP) was recorded from the Millar catheter. Electrocardiogram (ECG) in lead II was also recorded through the needle electrodes attached to the limbs. The heart rate and ST-segment elevation were calculated off-line. […] Levels of TNF-α and IL-6 were measured using ELISA kits for TNF-α (RayBiotech, Inc., Norcross Ga.) and IL-6 (R & D System). […] The contents of total protein in the supernatants were determined by using a Bio-Rad kit (Bio-Rad Laboratories, Hercules, Calif., USA). […] To determine the effect of a caffeoylquinic acid-rich extract on pro-inflammatory cytokines, cardiac tissue levels of TNF-α and IL-6 after I/R were evaluated.

[1] = tested on: Lactate dehydrogenase (LDH); experiment: Serum LDH activity 24 h after I/R (commercial kit); type: in vivo, rat; conditions: 5 mg/kg, P<0.01
Experimental: (§2) An ischemia reperfusion injury was produced in rat heart based on Buerke's description with our modifications (Buerke et al., Proc Natl Acad Sci USA, 1995, 92:8031-8035). Sixty rats were randomly divided into six groups (n=10 per group): (I) Sham group (given saline vehicle without I/R); (II) I/R group with saline alone; (Ill) I/R group with 10 mg/kg of the caffeoylquinic acid-rich extract of example 1; (IV) I/R group with 20 mg/kg of the caffeoylquinic acid-rich extract of example 1; (V) I/R group with 40 mg/kg of the caffeoylquinic acid-rich extract of example 1; […] The vehicle or drugs were administered 1 min before reperfusion via single bolus tail vein injection. Rats were anesthetized with pentobarbital sodium (70 mg/kg body weight) by an i.p. injection of a mixture of 20% Dorminal (1 ml contains 200 mg pentobarbital sodium, Alfasan) and sterile saline at a ratio of 1:3 (VN). Using a PowerLab (ADInstruments Pty Ltd., Castle Hill, Australia), mean aortic pressure (MAP) was recorded from the Millar catheter. Electrocardiogram (ECG) in lead II was also recorded through the needle electrodes attached to the limbs. The heart rate and ST-segment elevation were calculated off-line. The chest was opened at the left fourth intercostal space. […] Activities of LDH and CK-MB were determined by using commercial assay kits according to manufacturer's instructions. […]

[2] = tested on: myocardial I/R injury in rat heart; experiment: Myocardial infarct size by TTC staining after ischemia/reperfusion; type: in vivo; conditions: 5 mg/kg i.v. tail vein 1 min before reperfusion; positive control; vehicle 15.2±1.4%
Experimental: (§3) An ischemia reperfusion injury was produced in rat heart based on Buerke's description with our modifications (Buerke et al., Proc Natl Acad Sci USA, 1995, 92:8031-8035). Sixty rats were randomly divided into six groups (n=10 per group): (I) Sham group (given saline vehicle without I/R); (II) I/R group with saline alone; (Ill) I/R group with 10 mg/kg of the caffeoylquinic acid-rich extract of example 1; (IV) I/R group with 20 mg/kg of the caffeoylquinic acid-rich extract of example 1; (V) I/R group with 40 mg/kg of the caffeoylquinic acid-rich extract of example 1; […] The vehicle or drugs were administered 1 min before reperfusion via single bolus tail vein injection. […] Using a PowerLab (ADInstruments Pty Ltd., Castle Hill, Australia), mean aortic pressure (MAP) was recorded from the Millar catheter. Electrocardiogram (ECG) in lead II was also recorded through the needle electrodes attached to the limbs. The heart rate and ST-segment elevation were calculated off-line. […] The images of the slice were captured by a LEICA digital camera 480 and infarct area in each slice was measured by computed planimetry with an image analyzing program Image J1.26 (Wayne Rasband, National Institutes of Health, USA). Then the infarct area of each slice was determined by manual delineation of TTC-negative pale area of the image. […]

IL-6 = experiment: Cardiac tissue IL-6 level by ELISA 24 h after I/R; type: in vivo, rat; conditions: 5 mg/kg
Experimental: as §1

[3] = tested on: myocardial I/R injury in rat heart; experiment: ECG (lead II) ST-segment depression and heart rate 24 h after I/R; type: in vivo; conditions: 5 mg/kg; 24 h reperfusion
Experimental: as §3, with “Electrocardiogram (ECG) in lead II was recorded through” for “The images of”, “needle electrodes attached to the limbs continuously for 15 min” for “slice were captured by a LEICA digital camera 480 and infarct area in each slice was measured by computed planimetry”, “electrocardiograph (ASB240U, […], China). The heart rate and ST-segment depression were calculated off-line. […] The amplitude” for “image analyzing program Image J1.26 (Wayne Rasband, National Institutes”, “ST-segment and heart rate were recorded and used as” for “Health, USA). Then”, “index” for “infarct area”, “ischemic electrocardiograph changes.” for “each slice was determined by manual delineation of TTC-negative pale area of the image.”

[4] = tested on: Creatine kinase-MB (CK-MB); experiment: Serum CK-MB activity 24 h after I/R (commercial kit); type: in vivo, rat; conditions: 5 mg/kg, P<0.01
Experimental: as §2

## O=C(/C=C/c1ccc(O)c(O)c1)OCCc1ccccc1 [CAPE, 2-phenylethyl (2E)-3-(3,4-dihydroxyphenyl)acrylate]
JNK
  JNK phosphorylation: markedly reduced
TNF-α
  cardiac tissue level of TNF-α: markedly decreased
[1]
  serum LDH: 287±18.8 U/L
[2]
  myocardial infarct size: 7.9±0.9%
IL-6
  cardiac tissue level of IL-6: markedly decreased
[3]
  I/R-induced ST-segment depression: significant protective effects
  heart rate decrease after I/R: slight effect without significant difference
[4]
  serum CK-MB: 913±40.2 U/L

— patent US10342777B2, “Caffeoylquinic acid-rich extract and preparation as well as use thereof” (Macau University of Science and Technology, priority 2015, dated 2019)
